Source: article PMC7076672, “Improving the Oral Bioavailability of an Anti-Glioma Prodrug CAT3 Using Novel Solid Lipid Nanoparticles Containing Oleic Acid-CAT3 Conjugates” (Pharmaceutics, 2020)
Where two headings read alike, the source gives them in different places.

Assays:
[1] = In vitro release under simulated gastrointestinal conditions (dialysis bag); assay type: physicochemical; conditions: 0.1% SDS medium, 37 °C
Method: Drug release from SLN was monitored in vitro under simulated gastrointestinal conditions. The tests were performed by placing 2 mL SLN samples (containing 2 mg CAT3) into 400 mL of the dissolution medium maintained at 37 °C. The dissolution media contained 0.1% SDS (w/v) to meet sink conditions. Preswollen 8–10 kDa MWCO dialysis bags (Sigma-Aldrich, Madrid, Spain), which contained 5 mL of the blank SDS solution with the same concentration, were placed into the dissolution flask (n = 3). The release behavior of CAT3 was compared under the same condition by placing 5 mg CAT3 powder into the 1000 mL media. The samples (1 mL) were withdrawn at predetermined time points from the dialysis bags and replaced with the same amount of fresh medium maintained at 37 °C. The samples were centrifuged for 5 min at 12,000 rpm, and the resultant supernatants were quantified for drug content. The samples were protected from light during the experiments. The DDsolver software was used to evaluate the drug-release kinetics. An Excel worksheet (Microsoft Corporation, Redmond, WA, USA) was used to control the computing method for comparison with the results obtained using the DDSolver program. According to the example format for each built-in module of the DDSolver, all data were entered into Excel. The relevant parameters were calculated following the step-by-step equations utilizing an Excel spreadsheet.

[2] = system: C6 glioma cells; test: In vitro cytotoxicity analysis (MTT assay); assay type: cell-based; conditions: 0.64 ng/mL
Method: Cytotoxicity of the CAT3 suspension, OA-CAT3-SLN, and blank SLN against the C6 brain glioma cell line was measured by 3-(4,5-dimethylthiazol-2-yl)-2,5 diphenyltetrazolium bromide (MTT) assay. Briefly, the cells were seeded into 96-well plates at a cell density of 2 × 10^4 cells/mL (100 μL/well). After 24 h of incubation, the cells were further incubated for 24, 48, and 72 h in fresh DMEM complete medium containing 0.64 ng/mL CAT3 suspension, OA-CAT3-SLN, or the blank SLN, respectively. At the above-mentioned time points, the culture medium was replaced by the MTT solution (0.5 mg/mL, 200 μL/well), followed by incubation for further 4 h. The supernatant was removed and 100 μL of DMSO solution was added to the wells. The absorbance values of each well were measured at 570 nm using a microplate reader (Synergy H1 Hybrid Multi-Mode Microplate Reader, BioTek, Winooski, VT, USA).

[3] = Transepithelial transport study; assay type: in vitro ADME, canine; conditions: dog, MDCK-MDR1, 37 °C, n = 3
Method: The permeabilities of CAT3 and OA-CAT3-SLN were investigated on an MDCK-MDR1 cell monolayer. MDCK-MDR1 cells were seeded onto 12-well transwell® filter inserts (pore size 0.4 μm, surface area 1.12 cm^2; Corning Incorporated, Corning, NY, USA) at a density of 2 × 10^5 cells/well. The culture medium was changed every 24 h for seven days, and the cell monolayers with a transepithelial electrical resistance (TEER) above 110 Ω·cm^2 were used for the transport experiments. Prior to performing the TEER test, the culture medium was removed, and the monolayer was pre-incubated with 0.5 mL of Hanks’ balanced salt solution (HBSS) for 20 min at 37 °C. […]
To investigate the mechanism of cellular internalization of OA-CAT3-SLN, various specific endocytic inhibitors were evaluated in the uptake study. […]
The amount of CAT3 or OA-CAT3-SLN that permeated that through the monolayer was determined using the liquid chromatography-mass spectrometry (LC-MS/MS) system. The apparent permeability coefficient (Papp) of CAT3 or OA-CAT3-SLN was calculated according to the following equation: Papp = dQ/dt × 1/(A × C0), where dQ/dt indicates the linear appearance rate of mass at the BL side (μmol/s), C0 is the initial concentration of CAT3 or OA-CAT3-SLN on the AP side (μmol/mL), and A is the surface area of the monolayer (cm^2).

[4] = system: P-gp; design: method as in PMID 25936609, PMID 35547992; conditions: cited from earlier work
[5] = system: human cell lines; conditions: versus pro-drug CAT3; cited from earlier work

Row | SMILES | CAT3 released in the first 24 h [1] | viability at 0.00064 µg/mL ([2]; 24 h, n = 3, read-out: cell viability 24 h) [%] | viability at 0.00064 µg/mL ([2]; 48 h, n = 3, read-out: cell viability 48 h) [%] | viability at 0.00064 µg/mL ([2]; 72 h, n = 3, read-out: cell viability 72 h) [%] | Papp A→B at 2 h, 100 ng/mL [3] [×10⁻⁶ cm/s] | P-gp substrate [4] | in vitro antitumor activity, times greater than CAT3 [5]
1 | COc1cc2c3c(c4ccc(OC(=O)C(C)(C)C)cc4c2cc1OC)C[C@@H]1CCCN1C3 [CAT3, 13a-(S)-3-pivaloyloxyl-6,7-dimethoxyphenanthro(9,10-b)-indolizidine] | more than 80% | 81.2 | 46.2 | 16.5 | 0.106 ± 0.0289 | – | –
2 | COc1cc2c3c(c4ccc(O)cc4c2cc1OC)C[C@@H]1CCCN1C3 [PF403, 13a(S)-3-hydroxyl-6,7-dimethoxyphenanthro(9,10-b)-indolizidine] | – | – | – | – | – | substrate of P-gp | about 1000 times
